The text below walks through data of the NIST ThermoML archive (doi:10.1016/j.fluid.2010.10.008).

± gives the expanded uncertainty stated by the source.

This series can be described thus: activity coefficient (dimensionless); of the first substance listed, at infinite dilution; xn = mol fraction of the nth substance listed. To be noted: Liquid, Chromatography, x1 = 0.

`COCCOC` [1,2-dimethoxyethane] + CCn1cc[n+](C)c1.CS(=O)(=O)[O-]: the activity coefficient reads like this: (318.15 K) 5.58 ± 0.38; (323.15 K) 5.62 ± 0.38; (333.15 K) 5.69 ± 0.39; (343.15 K) 5.75 ± 0.39; (353.15 K) 5.8 ± 0.4.

For `Cc1cccc(C)c1` [1,3-dimethylbenzene] + CCn1cc[n+](C)c1.CS(=O)(=O)[O-], the activity coefficient is, setting by setting: (318.15 K) 20.8 ± 2.2; (323.15 K) 20.5 ± 2.2; (333.15 K) 19.9 ± 2.1; (343.15 K) 19.3 ± 2; (353.15 K) 18.8 ± 2.

For the compound `FC(F)(F)C(Cl)Br` (stereo not given) [1-bromo-1-chloro-2,2,2-trifluoroethane] + CCn1cc[n+](C)c1.CS(=O)(=O)[O-], the activity coefficient by setting is: (318.15 K) 0.586 ± 0.042; (323.15 K) 0.632 ± 0.044; (333.15 K) 0.739 ± 0.049; (343.15 K) 0.843 ± 0.054; (353.15 K) 0.96 ± 0.06.

Regarding `COC(C)(C)C` [2-methoxy-2-methylpropane] + CCn1cc[n+](C)c1.CS(=O)(=O)[O-], the activity coefficient (318.15 K) turned out to be 34.6 ± 2.4; the activity coefficient (323.15 K) amounted to 33.8 ± 2.3; the activity coefficient (333.15 K) was determined as 32.6 ± 2.2; the activity coefficient (343.15 K) was determined as 31.8 ± 2.2; the activity coefficient (353.15 K) amounted to 30.9 ± 2.1.

Turning to `CC(C)=O` [acetone] + CCn1cc[n+](C)c1.CS(=O)(=O)[O-], the activity coefficient reads like this: (318.15 K) 2.46 ± 0.17; (323.15 K) 2.47 ± 0.17; (333.15 K) 2.47 ± 0.17; (343.15 K) 2.48 ± 0.17; (353.15 K) 2.49 ± 0.17.

`CC#N` [acetonitrile] + CCn1cc[n+](C)c1.CS(=O)(=O)[O-]: the activity coefficient (318.15 K) came to 0.862 ± 0.055; the activity coefficient (323.15 K) was found to be 0.873 ± 0.056; the activity coefficient (333.15 K) amounted to 0.887 ± 0.056; the activity coefficient (343.15 K) was 0.9 ± 0.057; the activity coefficient (353.15 K) is 0.912 ± 0.058.

For `c1ccccc1` [benzene] + CCn1cc[n+](C)c1.CS(=O)(=O)[O-], the activity coefficient is, setting by setting: (318.15 K) 4.51 ± 0.47; (323.15 K) 4.5 ± 0.47; (333.15 K) 4.48 ± 0.47; (343.15 K) 4.48 ± 0.47; (353.15 K) 4.46 ± 0.47.

Turning to `CCC(C)=O` [butanone] + CCn1cc[n+](C)c1.CS(=O)(=O)[O-], the activity coefficient is 4.48 ± 0.31 (318.15 K); 4.46 ± 0.3 (323.15 K); 4.48 ± 0.31 (333.15 K); 4.41 ± 0.3 (343.15 K); 4.38 ± 0.3 (353.15 K).

With `C1CCCCC1` [cyclohexane] + CCn1cc[n+](C)c1.CS(=O)(=O)[O-], the activity coefficient is 123 ± 13 (318.15 K); 115 ± 12 (323.15 K); 103 ± 11 (333.15 K); 93.2 ± 9.8 (343.15 K); 84.3 ± 8.9 (353.15 K).

For the compound `ClCCl` [dichloromethane] + CCn1cc[n+](C)c1.CS(=O)(=O)[O-], the activity coefficient (318.15 K) was 0.7 ± 0.047; the activity coefficient (323.15 K) is 0.727 ± 0.048; the activity coefficient (333.15 K) turned out to be 0.78 ± 0.051; the activity coefficient (343.15 K) stood at 0.833 ± 0.054; the activity coefficient (353.15 K) turned out to be 0.887 ± 0.056.

As for `CC(C)OC(C)C` [diisopropyl ether] + CCn1cc[n+](C)c1.CS(=O)(=O)[O-], the activity coefficient (318.15 K) came out at 127 ± 26; the activity coefficient (323.15 K) amounted to 122 ± 25; the activity coefficient (333.15 K) turned out to be 114 ± 23; the activity coefficient (343.15 K) is 107 ± 22; the activity coefficient (353.15 K) turned out to be 101 ± 20.

With `COC(=O)OC` [dimethyl carbonate] + CCn1cc[n+](C)c1.CS(=O)(=O)[O-], the activity coefficient reads like this: (318.15 K) 3.18 ± 0.22; (323.15 K) 3.17 ± 0.22; (333.15 K) 3.16 ± 0.22; (343.15 K) 3.15 ± 0.21; (353.15 K) 3.14 ± 0.21.

On to `CCO` [ethanol] + CCn1cc[n+](C)c1.CS(=O)(=O)[O-], for which the activity coefficient runs as follows: (318.15 K) 0.513 ± 0.038; (323.15 K) 0.509 ± 0.038; (333.15 K) 0.501 ± 0.038; (343.15 K) 0.496 ± 0.038; (353.15 K) 0.493 ± 0.038.

Regarding `CCOC(C)=O` [ethyl acetate] + CCn1cc[n+](C)c1.CS(=O)(=O)[O-], the activity coefficient runs as follows: (318.15 K) 7.32 ± 0.5; (323.15 K) 7.29 ± 0.5; (333.15 K) 7.22 ± 0.49; (343.15 K) 7.17 ± 0.49; (353.15 K) 7.12 ± 0.49.

With `CCc1ccccc1` [ethylbenzene] + CCn1cc[n+](C)c1.CS(=O)(=O)[O-], the activity coefficient (318.15 K) is 19.1 ± 2; the activity coefficient (323.15 K) is 18.8 ± 2; the activity coefficient (333.15 K) was found to be 18.3 ± 1.9; the activity coefficient (343.15 K) was determined as 17.8 ± 1.9; the activity coefficient (353.15 K) worked out at 17.3 ± 1.8.

Regarding `CCC1CCCCC1` [ethylcyclohexane] + CCn1cc[n+](C)c1.CS(=O)(=O)[O-], the activity coefficient reads like this: (318.15 K) 344 ± 36; (323.15 K) 326 ± 34; (333.15 K) 291 ± 31; (343.15 K) 262 ± 28; (353.15 K) 237 ± 25.

Consider `CCCCCCC` [heptane] + CCn1cc[n+](C)c1.CS(=O)(=O)[O-], for which the activity coefficient by setting is: (318.15 K) 637 ± 130; (323.15 K) 596 ± 120; (333.15 K) 523 ± 110; (343.15 K) 471 ± 96; (353.15 K) 422 ± 86.

For the compound `CO` [methanol] + CCn1cc[n+](C)c1.CS(=O)(=O)[O-], the activity coefficient amounted to 0.238 ± 0.029 (318.15 K); 0.239 ± 0.029 (323.15 K); 0.242 ± 0.03 (333.15 K); 0.244 ± 0.03 (343.15 K); 0.247 ± 0.03 (353.15 K).

In the case of `COC(C)=O` [methyl ethanoate] + CCn1cc[n+](C)c1.CS(=O)(=O)[O-], the activity coefficient reads like this: (318.15 K) 3.59 ± 0.24; (323.15 K) 3.6 ± 0.25; (333.15 K) 3.61 ± 0.25; (343.15 K) 3.63 ± 0.25; (353.15 K) 3.66 ± 0.25.

Consider `CC1CCCCC1` [methylcyclohexane] + CCn1cc[n+](C)c1.CS(=O)(=O)[O-], for which the activity coefficient stood at 211 ± 22 (318.15 K); 198 ± 21 (323.15 K); 177 ± 19 (333.15 K); 160 ± 17 (343.15 K); 147 ± 16 (353.15 K).

As to `C[N+](=O)[O-]` [nitromethane] + CCn1cc[n+](C)c1.CS(=O)(=O)[O-], the activity coefficient by setting is: (318.15 K) 0.612 ± 0.043; (323.15 K) 0.621 ± 0.043; (333.15 K) 0.638 ± 0.044; (343.15 K) 0.653 ± 0.045; (353.15 K) 0.668 ± 0.045.

For the compound `C=CCCCCCC` [oct-1-ene] + CCn1cc[n+](C)c1.CS(=O)(=O)[O-], the activity coefficient is, setting by setting: (318.15 K) 374 ± 26; (323.15 K) 356 ± 24; (333.15 K) 325 ± 22; (343.15 K) 300 ± 21; (353.15 K) 277 ± 19.

In the case of `CCCCCCCC` [octane] + CCn1cc[n+](C)c1.CS(=O)(=O)[O-], the activity coefficient reads like this: (318.15 K) 1020 ± 110; (323.15 K) 949 ± 100; (333.15 K) 839 ± 89; (343.15 K) 752 ± 79; (353.15 K) 676 ± 71.

For the compound `CCCO` [propan-1-ol] + CCn1cc[n+](C)c1.CS(=O)(=O)[O-], the activity coefficient by setting is: (318.15 K) 0.801 ± 0.052; (323.15 K) 0.789 ± 0.051; (333.15 K) 0.771 ± 0.05; (343.15 K) 0.754 ± 0.05; (353.15 K) 0.742 ± 0.049.

Turning to `CC(C)O` [propan-2-ol] + CCn1cc[n+](C)c1.CS(=O)(=O)[O-], the activity coefficient is, setting by setting: (318.15 K) 0.974 ± 0.061; (323.15 K) 0.958 ± 0.06; (333.15 K) 0.933 ± 0.059; (343.15 K) 0.913 ± 0.058; (353.15 K) 0.9 ± 0.057.

With `ClC(Cl)(Cl)Cl` [tetrachloromethane] + CCn1cc[n+](C)c1.CS(=O)(=O)[O-], the activity coefficient is 4.93 ± 0.34 (318.15 K); 5.08 ± 0.35 (323.15 K); 5.36 ± 0.37 (333.15 K); 5.62 ± 0.38 (343.15 K); 5.87 ± 0.4 (353.15 K).

On to `C1CCOC1` [tetrahydrofuran] + CCn1cc[n+](C)c1.CS(=O)(=O)[O-], for which the activity coefficient came to 5.37 ± 0.37 (318.15 K); 5.33 ± 0.36 (323.15 K); 5.24 ± 0.36 (333.15 K); 5.18 ± 0.35 (343.15 K); 5.1 ± 0.35 (353.15 K).

`c1ccsc1` [thiophene] + CCn1cc[n+](C)c1.CS(=O)(=O)[O-]: the activity coefficient is 2.04 ± 0.14 (318.15 K); 2.06 ± 0.14 (323.15 K); 2.11 ± 0.14 (333.15 K); 2.16 ± 0.15 (343.15 K); 2.2 ± 0.15 (353.15 K).

With `Cc1ccccc1` [toluene] + CCn1cc[n+](C)c1.CS(=O)(=O)[O-], the activity coefficient reads like this: (318.15 K) 9.41 ± 0.99; (323.15 K) 9.37 ± 0.99; (333.15 K) 9.23 ± 0.97; (343.15 K) 9.12 ± 0.96; (353.15 K) 9 ± 0.95.

For `ClC(Cl)Cl` [trichloromethane] + CCn1cc[n+](C)c1.CS(=O)(=O)[O-], the activity coefficient is, setting by setting: (318.15 K) 0.488 ± 0.037; (323.15 K) 0.515 ± 0.038; (333.15 K) 0.572 ± 0.041; (343.15 K) 0.633 ± 0.044; (353.15 K) 0.694 ± 0.047.
